Data published in patent US20190008843A1, “PHARMACEUTICAL COMPOSITIONS FOR ON DEMAND ANTICOAGULANT THERAPY” (Kenox Pharmaceuticals Inc, priority 2016, published 2019).

What was measured:
[1] = Aqueous solubility of Dabigatran etexilate in presence of solubility enhancers; assay type: physicochemical
From the text: However, based on data presented in Table I, TPGS (tocopherol polyethylene glycol succinate) would be expected to be a poor solubilizer by one skilled in the art. […] The present invention provides pharmaceutical compositions and method of administration of Dabigatran etexilate to overcome the clinical limitations posed by gastrointestinal delivery, specifically by increasing the solubility of Dabigatran etexilate, while maintaining it in its most bioavailable form to ascertain an effective transport through the oral mucous membranes so it effectively can exert its anticoagulant activity. We have observed that the use of pharmaceutical solubilizers such as d-alpha Tocopherol polyethylene glycol succinate (TPGS) and Polysorbate 80 improved the solubility up to 5-10 mg/mL. Without being bound to any specific mechanism, the enhanced solubility and dissolution of Dabigatran etexilate, when co-formulated with TPGS may likely be due to ability of TPGS to inhibit precipitation and maintain supersaturation of dabigatran free base in the formulation microenvironment during dissolution. Pharmaceutical co-solvents such as Polyethylene Glycol 400 (PEG 400) and Glycerol improved the solubility compared to water alone, but the solubility was still<0.1 mg/mL.

[2] = Percent of Dabigatran etexilate remaining after exposure to aqueous solutions; assay type: physicochemical; details: 15 minutes
[3] = pH 4.5-7.4; cited from earlier work

- Solubility (mg/ml) 25° C. ([1]; 2% w/v Polysorbate 80 in 0.01M histidine buffer, pH 7.4, 25° C.): <0.1 mg/mL
- Solubility (mg/ml) 25° C. ([1]; 5% w/v Polysorbate 80 in 0.01M histidine buffer, pH 7.5, 25° C.): <0.1 mg/mL
- Solubility (mg/ml) 25° C. ([1]; 5% w/v TPGS in 0.01M histidine buffer, pH 7.6, 25° C.): 0.37 mg/mL
- Solubility (mg/ml) 25° C. ([1]; 10% w/v Glycerol in 0.01M histidine buffer, pH 7.6, 25° C.): <0.1 mg/mL
- Solubility (mg/ml) 25° C. ([1]; 10% w/v PEG 400 in 0.01M histidine buffer, pH 7.5, 25° C.): <0.1 mg/mL
- Solubility with pharmaceutical co-solvents ([1]; Polyethylene Glycol 400 (PEG 400) and Glycerol): < 100 µg/mL
- Solubility (mg/ml) 25° C. ([1]; Water, pH 6.5, 25° C.): <0.001 mg/mL
- % of Initial (23° C.) ([2]; Water): 21.6%
- % of Initial (40° C.) ([2]; Water): 21.0%
- % of Initial (23° C.) ([2]; pH 2 acetate buffer (0.1M)): 0.2%
- % of Initial (40° C.) ([2]; pH 2 acetate buffer (0.1M)): 0.2%
- % of Initial (23° C.) ([2]; pH 3 acetate buffer (0.1M)): 22.4%
- % of Initial (40° C.) ([2]; pH 3 acetate buffer (0.1M)): 22.2%
- % of Initial (23° C.) ([2]; pH 4 phosphate buffer (0.1M)): 59.5%
- % of Initial (40° C.) ([2]; pH 4 phosphate buffer (0.1M)): 55.7%
Substance: Dabigatran etexilate
- Solubility under physiological conditions relevant to oral absorption [3]: virtually insoluble
